Values joined by “and” are separate entries in the source; they are usually repeats but may differ in a detail not shown here. Equal entries are not always repeated.
Tests used:
[1] = tested on: amphotropic murine leukemia virus; assay: AMLV pseudotyped virus entry counter-screen, same infection protocol; format: cell-based; details: for luciferase units, AMLV entry: duplicates
Description: Infection of hepatoma cell lines with HCV pseudotype particles and screen for inhibitory peptides. The hepatoma cells, Huh7, was seeded at 8000 cells in 90 ul medium in 96-well plate. In the case of the inhibitor screen, the inhibitor was incubated with cells for one hour at 37° C. and then 50 ul viral supernatant was added to the cells 24 hours after seeding. The viral stock was pre-tittered and diluted to yield approximately 10,000 to 20,000 RLU. The cells were incubated at 37° C. with 5% CO2 for additional 72 hours and were harvested for luciferase assay. Peptide stocks were prepared in 100% DMSO at 10 mg/ml and were first screened at 100 ug/ml and then a dose responsive curve was generated with 10 points 3-fold titration starting from 100 ug/ml.
The specificity of the peptides were counter-screened with AMLV and HIV pseudotyped viruses using the same infection protocol.

[2] = tested on: HCV pseudoparticles; assay: HCV pseudoparticle (HCVpp) entry assay in Huh7 hepatoma cells, luciferase readout; format: cell-based, hepatitis C virus; details: for luciferase units, HCV entry / viral entry as a percentage of the uninhibited control: duplicates; for % of control at ~30 uM: percentage of hepatitis C virus cellular entry at 30 μM peptide vs uninhibited control; for viral entry as a percentage of the uninhibited control: HCV entry
Procedure, shortened: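 Pseudoparticles carrying HCV E1/E2 on an HIV luciferase backbone were produced in 293T cells; peptide was pre-incubated 1 h at 37 °C with Huh7 cells, then virus added and luciferase read after 72 h. Dose-response used 10-point 3-fold titration from 100 ug/ml; envelope-less particles controlled non-specific entry.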

[3] = 0.01371742 uM of peptide (three lines)
[4] = 0.1 nM of peptide (printed for three rows), two values per peptide and row
[5] = 0.3 nM of peptide, two values per peptide
[6] = 1 nM of peptide, two values per peptide
[7] = 3 nM of peptide, two values per peptide
[8] = 10 nM of peptide, two values per peptide
[9] = 30 nM of peptide, two values per peptide
[10] = 100 nM of peptide, two values per peptide
[11] = 300 nM of peptide, two values per peptide
[12] = 10000 nM of peptide, two values per peptide
[13] = 0.1 nM of peptide (three lines), 0.0001 µM

A-A-L-C-S-A-M-Y-V-G-D-L-C-G-S-V [SEQ ID NO: 14]
AMLVpp % inh ([1]; peptide library screen, cell entry inhibition vs uninhibited control): −42%
HCVpp % inh ([2]; peptide library screen, first screened at 100 ug/ml, cell entry inhibition vs uninhibited control): 39%

A-I-K-W-E-Y-V-L-L-F-L-L-L [SEQ ID NO: 98]
luciferase units, AMLV entry [1, 3]: 44492 luciferase units and 44531 luciferase units and 47406 luciferase units and 49869 luciferase units and 51067 luciferase units and 61382 luciferase units
luciferase units, AMLV entry ([1]; 0.04115226 uM of peptide): 41463 luciferase units and 41610 luciferase units
luciferase units, AMLV entry ([1]; 0.1234568 uM of peptide): 45455 luciferase units and 45030 luciferase units
luciferase units, AMLV entry ([1]; 0.3703704 uM of peptide): 42748 luciferase units and 48710 luciferase units
luciferase units, AMLV entry ([1]; 1.111111 uM of peptide): 45508 luciferase units and 44147 luciferase units
luciferase units, AMLV entry ([1]; 3.333333 uM of peptide): 59984 luciferase units and 48300 luciferase units
luciferase units, AMLV entry ([1]; 10 uM of peptide): 111324 luciferase units and 59835 luciferase units
luciferase units, AMLV entry ([1]; 30 uM of peptide): 81103 luciferase units and 70832 luciferase units
% control (HCVpp entry), proline scanning [2, 4]: 85 % control and 77 % control and 86 % control and 109 % control and 95 % control
% control (HCVpp entry), proline scanning [2, 5]: 90 % control and 68 % control
% control (HCVpp entry), proline scanning [2, 6]: 93 % control and 94 % control
% control (HCVpp entry), proline scanning [2, 7]: 86 % control and 52 % control
% control (HCVpp entry), proline scanning [2, 8]: 47 % control and 50 % control
luciferase units, HCV entry [2, 3]: 9747 luciferase units and 12623 luciferase units and 16027 luciferase units and 17299 luciferase units and 19079 luciferase units and 17575 luciferase units
% control (HCVpp entry), proline scanning [2, 9]: 41 % control and 35 % control
luciferase units, HCV entry ([2]; 0.04115226 uM of peptide): 6486 luciferase units and 6677 luciferase units
% control (HCVpp entry), proline scanning [2, 10]: 31 % control and 41 % control
luciferase units, HCV entry ([2]; 0.1234568 uM of peptide): 4583 luciferase units and 6873 luciferase units
% control (HCVpp entry), proline scanning [2, 11]: 21 % control and 29 % control
luciferase units, HCV entry ([2]; 0.3703704 uM of peptide): 2830 luciferase units and 5272 luciferase units
luciferase units, HCV entry ([2]; 1.111111 uM of peptide): 3285 luciferase units and 2555 luciferase units
luciferase units, HCV entry ([2]; 3.333333 uM of peptide): 2647 luciferase units and 2056 luciferase units
luciferase units, HCV entry ([2]; 10 uM of peptide): 2186 luciferase units and 2352 luciferase units
% control (HCVpp entry), proline scanning [2, 12]: 27 % control and 24 % control
luciferase units, HCV entry ([2]; 30 uM of peptide): 1938 luciferase units and 2251 luciferase units
% of control at ~30 uM [2]: 10%

A-I-K-W-E-Y-V-L-L-L-F-L-L [SEQ ID NO: 81]
luciferase units, AMLV entry [1, 3]: 46029 luciferase units and 39655 luciferase units and 41740 luciferase units and 42548 luciferase units and 45150 luciferase units and 45203 luciferase units
luciferase units, AMLV entry ([1]; 0.04115226 uM of peptide): 40104 luciferase units and 51496 luciferase units
luciferase units, AMLV entry ([1]; 0.1234568 uM of peptide): 51789 luciferase units and 49401 luciferase units
luciferase units, AMLV entry ([1]; 0.3703704 uM of peptide): 48861 luciferase units and 55221 luciferase units
luciferase units, AMLV entry ([1]; 1.111111 uM of peptide): 54439 luciferase units and 53032 luciferase units
luciferase units, AMLV entry ([1]; 3.333333 uM of peptide): 62658 luciferase units and 51388 luciferase units
luciferase units, AMLV entry ([1]; 30 uM of peptide): 86600 luciferase units and 64937 luciferase units
% control (HCVpp entry), glycine scanning ([2]; 0.00003 uM of peptide, two values per peptide and row): 86 % control and 77 % control and 104 % control and 134 % control
% control (HCVpp entry), glycine scanning ([2]; 0.0001 uM of peptide, two values per peptide): 103 % control and 79 % control
% control (HCVpp entry), glycine scanning ([2]; 0.0003 uM of peptide, two values per peptide): 90 % control and 105 % control
% control (HCVpp entry), glycine scanning ([2]; 0.001 uM of peptide, two values per peptide): 94 % control and 114 % control
% control (HCVpp entry), glycine scanning ([2]; 0.003 uM of peptide, two values per peptide): 82 % control and 66 % control
% control (HCVpp entry), glycine scanning ([2]; 0.01 uM of peptide, two values per peptide): 70 % control and 71 % control
% control (HCVpp entry), glycine scanning ([2]; 0.03 uM of peptide, two values per peptide): 51 % control and 38 % control
luciferase units, HCV entry ([2]; 0.04115226 uM of peptide): 3138 luciferase units and 5487 luciferase units
luciferase units, HCV entry ([2]; 0.1234568 uM of peptide): 1665 luciferase units and 1759 luciferase units
% control (HCVpp entry), glycine scanning ([2]; 0.3 uM of peptide, two values per peptide): 39 % control and 31 % control
luciferase units, HCV entry ([2]; 0.3703704 uM of peptide): 2133 luciferase units and 2617 luciferase units
luciferase units, HCV entry ([2]; 1.111111 uM of peptide): 2065 luciferase units and 2449 luciferase units
luciferase units, HCV entry ([2]; 10 uM of peptide): 2584 luciferase units and 3853 luciferase units
% control (HCVpp entry), glycine scanning ([2]; 10 uM of peptide, two values per peptide): 22 % control and 34 % control
luciferase units, HCV entry ([2]; 30 uM of peptide): 990 luciferase units and 667 luciferase units
% control (HCVpp entry), glycine scanning ([2]; 30 uM of peptide, two values per peptide): 30 % control and 26 % control
viral entry as a percentage of the uninhibited control [2, 13]: 79% and 103% and 77% and 86% and 134% and 104%
viral entry as a percentage of the uninhibited control ([2]; 0.3 nM of peptide, 0.0003 µM): 105% and 90%
viral entry as a percentage of the uninhibited control ([2]; 1 nM of peptide, 0.001 µM): 114% and 94%
viral entry as a percentage of the uninhibited control ([2]; 3 nM of peptide, 0.003 µM): 66% and 82%
viral entry as a percentage of the uninhibited control ([2]; 10 nM of peptide, 0.01 µM): 71% and 70%
viral entry as a percentage of the uninhibited control ([2]; 30 nM of peptide, 0.03 µM): 38% and 51%
viral entry as a percentage of the uninhibited control ([2]; 300 nM of peptide, 0.3 µM): 31% and 39%
viral entry as a percentage of the uninhibited control ([2]; 10000 nM of peptide, 10 µM): 34% and 22%
viral entry as a percentage of the uninhibited control ([2]; 30000 nM of peptide, 30 µM): 26% and 30%
% of control at ~30 uM [2]: 17%

LLFLLLVYEWKIA [retro]
viral entry as a percentage of the uninhibited control ([2]; 0.1 nM of peptide (three lines)): 90%
viral entry as a percentage of the uninhibited control [2, 13]: 107%
viral entry as a percentage of the uninhibited control ([2]; 0.3 nM of peptide, 0.0003 µM): 88% and 98% and 86% and 95% and 91%
viral entry as a percentage of the uninhibited control ([2]; 1 nM of peptide, 0.001 µM): 94% and 86% and 97% and 81% and 51% and 88%
viral entry as a percentage of the uninhibited control ([2]; 3 nM of peptide, 0.003 µM): 62% and 99% and 121% and 76% and 77% and 66%
viral entry as a percentage of the uninhibited control ([2]; 10 nM of peptide, 0.01 µM): 52% and 95% and 93% and 81% and 68% and 77%
viral entry as a percentage of the uninhibited control ([2]; 100 nM of peptide, 0.1 µM): 72% and 101% and 79% and 99% and 65% and 62%
viral entry as a percentage of the uninhibited control ([2]; 30000 nM of peptide, 30 µM): 104% and 110% and 73% and 90% and 96% and 80%
activity compared to the wild type 13-mer peptide ([2]; HCVpp entry inhibition, in words): completely lost activity

P-I-K-W-E-Y-V-L-L-L-F-L-L [SEQ ID NO: 99]
% control (HCVpp entry), proline scanning [2, 4]: 64 % control and 84 % control and 108 % control and 70 % control and 101 % control and 121 % control
% control (HCVpp entry), proline scanning [2, 5]: 84 % control and 80 % control
% control (HCVpp entry), proline scanning [2, 6]: 75 % control and 89 % control
% control (HCVpp entry), proline scanning [2, 7]: 68 % control and 56 % control
% control (HCVpp entry), proline scanning [2, 8]: 45 % control and 53 % control
% control (HCVpp entry), proline scanning [2, 9]: 28 % control and 36 % control
% control (HCVpp entry), proline scanning [2, 10]: 21 % control and 34 % control
% control (HCVpp entry), proline scanning [2, 11]: 21 % control and 29 % control
% control (HCVpp entry), proline scanning [2, 12]: 24 % control and 16 % control
% of control at ~30 uM [2]: 21%

S-F-A-I-K-W-E-Y-V-L-L-L-F-L-L [SEQ ID NO: 104]
HCVpp % inh ([2]; truncated peptides tested at 50 uM in 1% DMSO): 91%

From US20100119483A1, “PEPTIDE VIRAL ENTRY INHIBITORS” (Schering Corporation, priority 2004, published 2010)
